Measurements as given in patent US10364245B2 (CHIESI FARMACEUTICI S.p.A., priority 2017, dated 2019).
Structures can show the parent of a compound that is named as a salt.

Target: T1, p38 alpha (Homo sapiens, UniProt Q16539)
T1 construct: purchased Invitrogen PV3304
Test: P38 alpha enzyme inhibition assay (Alphascreen kinase activity assay)
Assay type: biochemical
Settings: 100 pM p38 alpha, 2 hours preincubation at 25° C., 250 μM ATP, ATF-2 fusion protein; read-out: p38α inhibition
Description: P38 Alpha Enzyme Inhibition Assay
The inhibitory activity of compounds was determined using an Alphascreen® (Perkin Elmer) based kinase activity assay. Kinase reactions consisted of 25 mM HEPES pH 7.5, 10 mM MgCl2, 100 μM Na3VO4, 2 mM DTT, 0.05 mg/ml Tween 20, 100 pM p38 alpha (Invitrogen, PV3304), 1% DMSO and 0.3 μg/ml ATF-2 fusion protein (New England Biolabs, 9224). Compounds were incubated under these conditions for 2 hours, at 25° C., prior to the initiation of the kinase activity by the addition of the 250 μM ATP. Reaction volumes were 20 μL. After 1 hr at 25° C. reactions were stopped by the adding 10 μL of 25 mM HEPES pH 7.5 containing 62.5 mM EDTA, 0.05% Triton X-100, 10% BSA and 0.83 ng/uL anti-phospho-ATF2 antibody (Abcam, ab28812). Detection was performed by measuring luminescence following the addition of Alphascreen Donor beads (Perkin Elmer 6765300) and Protein A Alphascreen Acceptor beads (Perkin Elmer 6760137), both at a final concentration of 20 ug/ml. IC50 values were determined from concentration-response curves.

T1 sequence (Q16539 whole entry): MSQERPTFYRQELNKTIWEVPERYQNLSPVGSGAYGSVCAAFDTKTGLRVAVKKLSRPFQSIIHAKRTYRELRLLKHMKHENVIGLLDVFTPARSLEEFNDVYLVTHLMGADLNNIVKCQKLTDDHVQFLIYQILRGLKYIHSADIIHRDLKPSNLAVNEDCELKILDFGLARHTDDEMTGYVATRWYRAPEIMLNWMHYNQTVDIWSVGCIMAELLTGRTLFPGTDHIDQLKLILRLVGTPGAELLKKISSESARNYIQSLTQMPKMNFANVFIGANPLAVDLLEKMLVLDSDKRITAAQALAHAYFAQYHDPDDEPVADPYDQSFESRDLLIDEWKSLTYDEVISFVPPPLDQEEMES

Compound	IC50 [nM]
COC(C)(C)c1nnc2ccc(O[C@@H]3CC[C@H](NC(=O)Nc4cc(C(C)(C)C)nc(C(=O)NCC(C)(C)N(C)C)n4)c4ccccc43)cn12 [Example 141, 4-(tert-butyl)-N-(2-(dimethylamino)-2-mcthylpropyl)-6-(3-((1S,4R)-4-((3-(2-methoxypropan-2-yl)-[1,2,4]triazolo[4,3-a]pyridin-6-yl)oxy)-1,2,3,4-tetrahydronaphthalen-1-yl)ureido)pyrimidine-2-carboxamide]	1 to 10
CCC(CC)(CNC(=O)c1nc(NC(=O)N[C@H]2CC[C@@H](Oc3ccc4nnc(C(C)(C)C)n4c3)c3ccccc32)cc(C(C)(C)C)n1)N(C)C [Example 168, 4-(tert-butyl)-6-(3-((1S,4R)-4-((3-(tert-butyl)-[1,2,4]triazolo[4,3-a]pyridin-6-yl)oxy)-1,2,3,4-tetrahydronaphthalen-1-yl)ureido)-N-(2-(dimethylamino)-2-ethylbutyl)pyrimidine-2-carboxamide]	1 to 10
CC(C)(C)c1cc(NC(=O)N[C@H]2CC[C@@H](Oc3ccc4nnc(C(C)(C)C)n4c3)c3ccccc32)nc(C(=O)N2CC(F)(F)C2)n1 [Example 79, 1-(6-(tert-butyl)-2-(3,3-difluoroazetidine-1-carbonyl)pyrimidin-4-yl)-3-((1S,4R)-4-((3-(tert-butyl)-[1,2,4]triazolo[4,3-a]pyridin-6-yl)oxy)-1,2,3,4-tetrahydronaphthalen-1-yl)urea]	1 to 10
COC1CN(C(C)(C)CNC(=O)c2nc(NC(=O)N[C@H]3CC[C@@H](Oc4ccc5nnc(C(C)(C)OC)n5c4)c4ccccc43)cc(C(C)(C)C)n2)C1 [Example 172, 4-(tert-butyl)-N-(2-(3-methoxyazetidin-1-yl)-2-rnethylpropyl)-6-(3-((1S,4R)-4-((3-(2-methoxypropan-2-yl)-[1,2,4]triazolo[4,3-a]pyridin-6-yl)oxy)-1,2,3,4-tetrahydronaphthalen-1-yl)ureido)pyrimidine-2-carboxamide]	1 to 10
COC(C)(C)c1nnc2ccc(O[C@@H]3CC[C@H](NC(=O)Nc4cc(C(=O)NCCN(C)C)nc(C(C)(C)C)c4)c4ccccc43)cn12 [Example 185, 6-(tert-butyl)-N-(2-(dimethylamino)ethyl)-4-(3-((1S,4R)-4-((3-(2-methoxypropan-2-yl)-[1,2,4]triazolo[4,3-a]pyridin-6-yl)oxy)-1,2,3,4-tetrahydronaphthalen-1-yl)ureido)picolinamide]	1 to 10
COCC(C)(C)c1nnc2ccc(O[C@@H]3CC[C@H](NC(=O)Nc4cc(C(C)(C)C)nc(C(=O)NCC5(N(C)C)CCOCC5)n4)c4ccccc43)cn12 [Example 150, 4-(tert-butyl)-N-((4-(dimethylamino)-tetrahydro-2H-pyran-4-yl)methyl)-6-(3-((1S,4R)-4-((3-(1-methoxy-2-methylpropan-2-yl)-[1,2,4]triazolo[4,3-a]pyridin-6-yl)oxy)-1,2,3,4-tetrahydronaphthalen-1-yl)ureido)pyrimidine-2-carboxamide]	1 to 10
CSc1nc(NC(=O)N[C@H]2CC[C@@H](Oc3ccc4nnc([C@@H]5CCCN5C)n4c3)c3ccccc32)cc(C(C)(C)C)n1 [Example 48]	1 to 10
CN(C)CCNC(=O)c1nc(NC(=O)N[C@H]2CC[C@@H](Oc3ccc4nnc(C(=O)N5CCOCC5)n4c3)c3ccccc32)cc(C(C)(C)C)n1 [Example 71, 4-(tert-butyl)-N-(2-(dimethylamino)ethyl)-6-(3-((1S,4R)-4-((3-(morpholine-4-carbonyl)-[1,2,4]triazolo[4,3-a]pyridin-6-yl)oxy)-1,2,3,4-tetrahydronaphthalen-1-yl)ureido)pyrimidine-2-carboxamide]	1 to 10
CN(CCNC(=O)c1nc(NC(=O)N[C@H]2CC[C@@H](Oc3ccc4nnc(C(C)(C)C)n4c3)c3ccccc32)cc(C(C)(C)C)n1)C1CC1 [Example 164, 4-(tert-butyl)-6-(3-((1S,4R)-4-((3-(tert-butyl)-[1,2,4]triazolo[4,3-a]pyridin-6-yl)oxy)-1,2,3,4-tetrahydronaphthalen-1-yl)ureido)-N-(2-(cyclopropyl(methyl)-amino)ethyl)pyrimidine-2-carboxamide]	1 to 10
CN(C)C1(CNC(=O)c2nc(NC(=O)N[C@H]3CC[C@@H](Oc4ccc5nnc(C(C)(C)C)n5c4)c4ccccc43)cc(C(C)(C)C)n2)CCCC1 [Example 163, 4-(tert-butyl)-6-(3-((1S,4R)-4-((3-(tert-butyl)-[1,2,4]-triazolo[4,3-a]pyridin-6-yl)oxy)-1,2,3,4-tetrahydronaphthalen-1-yl)ureido)-N-((1-(dimethylamino)-cyclopentyl)methyl)-pyrimidine-2-carboxamide]	1 to 10
COC(C)(C)c1nnc2ccc(O[C@@H]3CC[C@H](NC(=O)Nc4cc(C(=O)NCC(C)(C)N(C)C)nc(C(C)(C)C)c4)c4ccccc43)cn12 [Example 194, 6-(tert-butyl)-N-(2-(dimethylamino)-2-methylpropyl)-4-(3-((1S,4R)-4-((3-(2-methoxypropan-2-yl)-[1,2,4]triazolo[4,3-a]pyridin-6-yl)oxy)-1,2,3,4-tetrahydronaphthalen-1-yl)ureido)picolinamide]	1 to 10
COC1CN(CCNC(=O)c2nc(NC(=O)N[C@H]3CC[C@@H](Oc4ccc5nnc(C(C)(C)OC)n5c4)c4ccccc43)cc(C(C)(C)C)n2)C1 [Example 167, 4-(tert-butyl)-N-(2-(3-methoxyazetidin-1-yl)ethyl)-6-(3-((1S,4R)-4-((3-(2-methoxypropan-2-yl)-[1,2,4]triazolo[4,3-a]pyridin-6-yl)oxy)-1,2,3,4-tetrahydronaphthalen-1-yl)ureido)pyrimidine-2-carboxamide]	1 to 10
CN(C)CCN(C)C(=O)c1nc(NC(=O)N[C@H]2CC[C@@H](Oc3ccc4nnc(C(C)(C)C)n4c3)c3ccccc32)cc(C(C)(C)C)n1 [Example 115, 4-(tert-butyl)-6-(3-((1S,4R)-4-((3-(tert-butyl)-[1,2,4]triazolo[4,3-a]pyridin-6-yl)oxy)-1,2,3,4-tetrahydronaphthalen-1-yl)ureido)-N-(2-(dimethylamino)ethyl)-N-methylpyrimidine-2-carboxamide]	1 to 10
COCCN(C)CCNC(=O)c1nc(NC(=O)N[C@H]2CC[C@@H](Oc3ccc4nnc([C@H](C)OC)n4c3)c3ccccc32)cc(C(C)(C)C)n1 [Example 106, 4-(tert-butyl)-N-(2-((2-methoxyethyl)(methyl)amino)ethyl)-6-(3-((1S,4R)-4-((3-((S)-1-methoxyethyl)-[1,2,4]triazolo[4,3-a]pyridin-6-yl)oxy)-1,2,3,4-tetrahydronaphthalen-1-yl)ureido)pyrimidine-2-carboxamide]	1 to 10
CN1CCN(Cc2nc(NC(=O)N[C@H]3CC[C@@H](Oc4ccc5nnc(C(C)(C)C)n5c4)c4ccccc43)cc(C(C)(C)C)n2)C(=O)C1 [Example 135, 1-(6-(tert-Butyl)-2-((4-methyl-2-oxopiperazin-1-yl)methyl)pyrimidin-4-yl)-3-((1S,4R)-4-((3-(tert-butyl)-[1,2,4]triazolo[4,3-a]pyridin-6-yl)oxy)-1,2,3,4-tetrahydronaphthalen-1-yl)urea formate salt]	1 to 10
CN(C)C1(CNC(=O)c2nc(NC(=O)N[C@H]3CC[C@@H](Oc4ccc5nnc(C(C)(C)C)n5c4)c4ccccc43)cc(C(C)(C)C)n2)CCCCC1 [Example 161, 4-(tert-butyl)-6-(3-((1S,4R)-4-((3-(tert-butyl)-[1,2,4]-triazolo[4,3-a]pyridin-6-yl)oxy)-1,2,3,4-tetrahydronaphthalen-1-yl)ureido)-N-((1-(dimethylamino)-cyclohexyl)methyl)pyrimidine-2-carboxamide]	1 to 10
CN(C)C1(CNC(=O)c2nc(NC(=O)N[C@H]3CC[C@@H](Oc4ccc5nnc(C(C)(C)C)n5c4)c4ccccc43)cc(C(C)(C)C)n2)CCOCC1 [Example 160, 4-(tert-butyl)-6-(3-((1S,4R)-4-((3-(tert-butyl)-[1,2,4]triazolo[4,3-a]pyridm-6-yl)oxy)-1,2,3,4-tetrahydronaphthalen-1-yl)ureido)-N-((4-(dimethylamino)-tetrahydro-2H-pyran-4-yl)methyl)pyrimidine-2-carboxamide]	1 to 10
CC(C)(C)c1cc(NC(=O)N[C@H]2CC[C@@H](Oc3ccc4nnc(C(C)(C)C)n4c3)c3ccccc32)nc(C(=O)N2CCN(CCO)CC2)n1 [Example 116, 1-(6-(tert-butyl)-2-(4-(2-hydroxyethyl)piperazine-1-carbonyl)pyrimidin-4-yl)-3-((1S,4R)-4-((3-(tert-butyl)-[1,2,4]triazolo[4,3-a]pyridin-6-yl)oxy)-1,2,3,4-tetrahydronaphthalen-1-yl)urea]	1 to 10
COCC(C)(C)c1nnc2ccc(O[C@@H]3CC[C@H](NC(=O)Nc4cc(C(C)(C)C)nc(C(=O)NCC5(N(C)C)CCCCC5)n4)c4ccccc43)cn12 [Example 153, 4-(tert-butyl)-N-((1-(dimethylamino)cyclohexyl)methyl)-6-(3-((1S,4R)-4-((3-(1-methoxy-2-methylpropan-2-yl)-[1,2,4]triazolo[4,3-a]pyridin-6-yl)oxy)-1,2,3,4-tetrahydronaphthalen-1-yl)ureido)pyrimidine-2-carboxamide]	1 to 10
